Test results published in patent US20160220552A1, “FORMULATIONS FOR CGRP RECEPTOR ANTAGONISTS” (MERCK SHARP & DOHME CORP., priority 2013, published 2016).

Assays:
[1] = clinical trials; cited from earlier work
[2] = control group; cited from earlier work
[3] = Permeability of Compound I; type: in vitro ADME; conditions: not told
[4] = BCS classification / solubility of Compound I; type: physicochemical

Row | Papp [3] [×10⁻⁶ cm/s] | BCS Class [4] | solubility [4] | SMILES | effectiveness in treating migraine [1] | prevention of headache induced by CGRP infusion [2]
1 |  |  |  | NCCCC[C@H](NC(=O)[C@@H](Cc1cc(Br)c(O)c(Br)c1)NC(=O)N1CCC(N2Cc3ccccc3NC2=O)CC1)C(=O)N1CCN(c2ccncc2)CC1 [BIBN4096BS] | effective in treating acute attacks of migraine | able to prevent headache induced by CGRP infusion
2 | 16.6 | BCS Class 4 | low solubility | C[C@@H]1[C@H](c2ccccc2)C[C@H](NC(=O)c2cnc3c(c2)C[C@@]2(C3)C(=O)Nc3ncccc32)C(=O)N1CC(F)(F)F [Compound I, (S)—N-((3S,5S,6R)-6-methyl-2-oxo-5-phenyl-1-(2,2,2-trifluoroethyl)piperidine-3-yl)-2′-oxo-1′,2′,5,7-tetrahydrospiro[cyclopenta[b]pyridine-6,3′-pyrrolo[2,3-b]pyridine]-3-carboxamide trihydrate] |  | 
3 |  |  |  | O=C(N[C@@H]1CC[C@@H](c2cccc(F)c2F)CN(CC(F)(F)F)C1=O)N1CCC(n2c(=O)[nH]c3ncccc32)CC1 [telcagepant] | shown antimigraine effectiveness | 
